Where two headings read alike, the source gives them in different places.

We go through nine molecules from patent US20250163024A1, “CHEMICAL TARGETING SWI/SNF RELATED, MATRIX ASSOCIATED, ACTIN DEPENDENT REGULATOR OF CHROMATIN, SUBFAMILY A, MEMBER 4 (SMARCA4) AND USE IN DIFFUSE INTRINSIC PONTINE GLIOMA (DIPG)” (DANA-FARBER CANCER INSTITUTE, INC., priority 2022, published 2025).

What all share (assay type): cell-based
Experiment [1] has as its system MV411 (human myelomonocytic leukemia) cells. Put plainly: Cell proliferation assay (ATPlite cell viability) in MV411 cells. As to conditions: for IC50: Homo sapiens, MV4-11, 48 hours. The method, then:
(§1) 2000 cells were seeded in 50 μL of RPMI medium in each well of a white, solid bottomed 384-well plate. Plates were spun down briefly, and seeded cells were pinned with […] of the bifunctional compound at serial three-fold diluted concentrations using the JANUS® Liquid Handling Workstation. Plates were incubated at 37° C. in 5% CO2 for the indicated treatment time (48 hours). After compound treatment, 15 μL of 1:2 solution of ATPlite™ 1Step diluted in PBS was added to each well of the 384-well plates. Plates were put on a plate shaker for 1 minute and incubated at room temperature for 9 minutes, and the resulting luminescence signal was read using an EnVision® plate reader. Cell viability was calculated by normalizing luminescence signals of SMARC compound treated cells to that of vehicle treated cells.
(In general: ATP-based viability assays read luminescence as a measure of living cells.)

Experiment [2] concerns MOLM13 (acute monocytic leukemia) cells. Kind of experiment: Cell proliferation assay (ATPlite cell viability) in MOLM13 cells. The conditions noted are these: for IC50: Homo sapiens. The protocol:
as §1, with “Plates were incubated at 37° C. in 5% CO2 for the indicated treatment time (48 hours).” left out

The target of a further experiment is T1, SMARCA4 (BRG) (Homo sapiens, UniProt P51532).
T1 construct: endogenous in cells; host or cells: NOMO-1 cells
T1 sequence (P51532 whole entry): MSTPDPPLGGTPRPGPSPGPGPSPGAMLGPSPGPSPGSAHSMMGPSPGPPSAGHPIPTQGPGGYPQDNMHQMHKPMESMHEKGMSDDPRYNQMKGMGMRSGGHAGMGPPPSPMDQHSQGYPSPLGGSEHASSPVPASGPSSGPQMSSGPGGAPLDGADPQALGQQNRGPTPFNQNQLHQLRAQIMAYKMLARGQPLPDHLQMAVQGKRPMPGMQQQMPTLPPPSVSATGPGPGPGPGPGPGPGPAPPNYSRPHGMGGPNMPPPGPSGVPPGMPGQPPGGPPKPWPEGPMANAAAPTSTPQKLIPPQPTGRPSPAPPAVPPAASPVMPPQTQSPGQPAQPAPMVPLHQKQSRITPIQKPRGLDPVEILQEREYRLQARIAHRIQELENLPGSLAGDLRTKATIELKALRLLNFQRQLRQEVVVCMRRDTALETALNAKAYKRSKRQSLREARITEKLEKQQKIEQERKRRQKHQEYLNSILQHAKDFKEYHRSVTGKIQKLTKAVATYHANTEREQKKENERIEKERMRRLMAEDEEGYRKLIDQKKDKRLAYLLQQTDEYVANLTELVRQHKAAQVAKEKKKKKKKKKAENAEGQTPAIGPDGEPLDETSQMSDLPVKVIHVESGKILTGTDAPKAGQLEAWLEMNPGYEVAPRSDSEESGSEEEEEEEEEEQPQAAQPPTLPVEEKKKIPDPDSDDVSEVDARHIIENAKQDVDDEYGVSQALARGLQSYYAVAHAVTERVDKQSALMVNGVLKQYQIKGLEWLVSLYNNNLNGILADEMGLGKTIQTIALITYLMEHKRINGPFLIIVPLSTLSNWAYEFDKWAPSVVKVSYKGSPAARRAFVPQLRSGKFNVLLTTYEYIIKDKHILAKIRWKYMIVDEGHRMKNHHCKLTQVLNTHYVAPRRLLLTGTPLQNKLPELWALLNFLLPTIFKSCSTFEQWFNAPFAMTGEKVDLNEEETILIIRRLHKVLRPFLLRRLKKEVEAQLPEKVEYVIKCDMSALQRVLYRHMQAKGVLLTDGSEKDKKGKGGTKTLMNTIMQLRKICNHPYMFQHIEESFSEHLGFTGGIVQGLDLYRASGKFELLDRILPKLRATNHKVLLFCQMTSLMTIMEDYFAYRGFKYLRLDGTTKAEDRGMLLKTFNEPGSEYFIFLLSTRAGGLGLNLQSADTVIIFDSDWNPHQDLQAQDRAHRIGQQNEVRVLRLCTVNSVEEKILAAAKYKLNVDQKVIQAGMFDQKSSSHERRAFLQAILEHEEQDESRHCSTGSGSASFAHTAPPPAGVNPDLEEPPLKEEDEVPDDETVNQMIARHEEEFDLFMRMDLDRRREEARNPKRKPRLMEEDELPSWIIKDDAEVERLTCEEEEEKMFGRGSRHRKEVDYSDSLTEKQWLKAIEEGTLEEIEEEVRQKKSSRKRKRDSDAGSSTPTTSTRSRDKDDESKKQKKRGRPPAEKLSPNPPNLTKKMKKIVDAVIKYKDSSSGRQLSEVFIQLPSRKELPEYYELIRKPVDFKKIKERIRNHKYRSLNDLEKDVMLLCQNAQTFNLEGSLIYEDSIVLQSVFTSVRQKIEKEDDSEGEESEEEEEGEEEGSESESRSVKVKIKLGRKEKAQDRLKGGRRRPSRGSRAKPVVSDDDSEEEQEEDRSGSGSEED
Put plainly: Cellular degradation of SMARCA4 in NOMO-1 cells (western blot). The conditions noted are these: NOMO1 cells, low micromolar treatment, 24 hours, western blot FIG. 1A-1B. The protocol: For each tested condition, 1 million cells were seeded into a well of a 6-well plate. After overnight incubation at 37° C. in 5% CO2, cells were treated with either DMSO or varying doses of the indicated bifunctional compound and put back into the incubator for the indicated treatment time. Treated cells were collected by transferring cell suspensions from 6-well plate wells into microcentrifuge tubes and spinning down samples at 3000 rpm for 3 minutes. Supernatant was discarded and all samples were washed with phosphate-buffered saline (PBS) to remove any remaining compound from the cells. Cells were lysed using radioimmunoprecipitation assay (RIPA) buffer and sonicated on ice for 3 seconds at 25% amplification and allowed to rest for 15-30 minutes. Lysates were then spun down at 15000 rpm for 10 minutes and supernatant was collected. Protein concentration was measured using the Pierce™ bicinchoninic acid (BCA) Protein Assay Kit from ThermoFisher Scientific according to the manufacturer's instructions. Equivalent amounts of protein were resolved by western blotting using 4-12% Bis-Tris NuPAGE™ gels (Thermo-Fisher Scientific) prior to transfer and overnight immunoblotting using primary antibodies to the proteins indicated. […]
For orientation: Immunoblotting shows a protein as a band on a membrane.

[3] abbreviates: MOLM-13, 48 hours, read-out: IC50 (μM) MOLM13-48h.
[4] abbreviates: MOLM-13, 72 h (starred values), read-out: IC50 (μM) MOLM13, *72 h.

As for `O=C1CCC(N2C(=O)c3cccc(NCCCCNC(=O)c4cccc(C#Cc5cc(NC(=O)Nc6ccnc(Cl)c6)ccn5)c4)c3C2=O)C(=O)N1` (racemic) [Compound 19, 3-((4-(3-(2-chloropyridin-4-yl)ureido)pyridin-2-yl)ethynyl)-N-(4-((2-(2,6-dioxopiperidin-3-yl)-1,3-dioxoisoindolin-4-yl)amino)butyl)benzamide], in experiment [1], the “IC50 (μM) MV411-48h” value was “submicromolar” and the IC50 is 0.109 µM. Also, the “IC50 (μM) MOLM13-48h” value in experiment [2] (48 hours) is recorded as “submicromolar”. Moreover, in experiment [2] (setting [3]), the IC50 came to 0.0571 µM.

For `O=C1CCC(N2C(=O)c3cccc(NCCCCNC(=O)c4cccc(CCc5cc(NC(=O)Nc6ccnc(Cl)c6)ccn5)c4)c3C2=O)C(=O)N1` (stereo not drawn) [Compound 5, 3-(2-(4-(3-(2-chloropyridin-4-yl)ureido)pyridin-2-yl)ethyl)-N-(4-((2-(2,6-dioxopiperidin-3-yl)-1,3-dioxoisoindolin-4-yl)amino)butyl)benzamide], at SMARCA4 (BRG), the “BRG (SMARCA4) degradation” value was “significantly degraded”.

Take `O=C1CCC(N2C(=O)c3cccc(NCCCCNC(=O)c4ccc(C#Cc5cc(NC(=O)Nc6ccnc(Cl)c6)ccn5)cc4)c3C2=O)C(=O)N1` (stereo not drawn) [Compound 6, 4-((4-(3-(2-chloropyridin-4-yl)ureido)pyridin-2-yl)ethynyl)-N-(4-((2-(2,6-dioxopiperidin-3-yl)-1,3-dioxoisoindolin-4-yl)amino)butyl)benzamide]: the “BRG (SMARCA4) degradation” value on SMARCA4 (BRG) is listed as “significantly degraded”.

Regarding `O=C1CCC(N2C(=O)c3cccc(NCCCCCCCCNC(=O)c4cccc(C#Cc5cc(NC(=O)Nc6ccnc(Cl)c6)ccn5)c4)c3C2=O)C(=O)N1` (stereo not drawn) [Compound 17], the half-maximal inhibitory concentration (IC50) in experiment [1] came to 0.491 µM; in experiment [2] (setting [4]), 0.566 µM.

Turning to `O=C1CCC(N2C(=O)c3cccc(NCCOCCOCCNC(=O)c4cccc(C#Cc5cc(NC(=O)Nc6ccnc(Cl)c6)ccn5)c4)c3C2=O)C(=O)N1` (stereo not drawn) [Compound 18], the IC50 in experiment [1] was determined as 0.109 µM; in experiment [2] (setting [4]), 1.28 µM.

As for `O=C1CCC(N2C(=O)c3ccc(NCCCCNC(=O)c4cccc(C#Cc5cc(NC(=O)Nc6ccnc(Cl)c6)ccn5)c4)cc3C2=O)C(=O)N1` (stereo not drawn) [Compound 21], the IC50 was 0.0102 µM in experiment [1] and 0.0793 µM in experiment [2] (setting [3]).

On to `O=C1CCC(N2C(=O)c3ccc(NCCOCCNC(=O)c4cccc(C#Cc5cc(NC(=O)Nc6ccnc(Cl)c6)ccn5)c4)cc3C2=O)C(=O)N1` (stereo not drawn) [Compound 22], for which the results for the IC50 in experiment [1] and in experiment [2] (setting [3]) were 0.037 µM and 0.253 µM, respectively.

With `O=C1CCC(N2C(=O)c3cccc(NCCNC(=O)c4cccc(C#Cc5cc(NC(=O)Nc6ccnc(Cl)c6)ccn5)c4)c3C2=O)C(=O)N1` (stereo not drawn) [Compound 23], the IC50 in experiment [1] turned out to be 21.7 µM; in experiment [2] (setting [3]) it was 6.18 µM.

`O=C1CCC(N2C(=O)c3cccc(NCCCCCCNC(=O)c4cccc(C#Cc5cc(NC(=O)Nc6ccnc(Cl)c6)ccn5)c4)c3C2=O)C(=O)N1` (stereo not drawn) [Compound 24]: the IC50 in experiment [1] is 0.0389 µM; in experiment [2] (setting [3]), 0.344 µM.

In general, IC50 refers to the concentration at which inhibition is half-maximal.
